Assay results reported in patent US20200010482A1, “INHIBITORS OF BETA SECRETASE” (Janssen Pharmaceutica NV, priority 2017, published 2020).

Columns and labels:
BACE1 = molecular target: T1, BACE1 (Homo sapiens, UniProt P56817); experiment: BACE1 biochemical FRET based assay; settings: recombinant BACE1 0.04 μg/ml, 20 μM substrate, 450 min, pH 5.0; for IC50: read-out: BIOCHEMICAL FRET BASED ASSAY pIC50 (converted)
T1 construct: recombinant BACE1 protein in a final concentration of 0.04 μg/ml
From the text: (§1) This assay is a Fluorescence Resonance Energy Transfer Assay (FRET) based assay. The substrate for this assay is an APP derived 13 amino acids peptide that contains the ‘Swedish’ Lys-Met/Asn-Leu mutation of the amyloid precursor protein (APP) beta-secretase cleavage site. This substrate also contains two fluorophores: (7-methoxycoumarin-4-yl) acetic acid (Mca) is a fluorescent donor with excitation wavelength at 320 nm and emission at 405 nm and 2,4-Dinitrophenyl (Dnp) is a proprietary quencher acceptor. […] Upon cleavage by BACE1, the fluorophore Mca is separated from the quenching group Dnp, restoring the full fluorescence yield of the donor. The increase in fluorescence is linearly related to the rate of proteolysis.
Briefly in a 384-well format recombinant BACE1 protein in a final concentration of 0.04 μg/ml is incubated for 450 minutes at room temperature with 20 μM substrate in incubation buffer (50 mM Citrate buffer pH 5.0, 0.05% PEG) in the presence of compound or DMSO. Next the amount of proteolysis is directly measured by fluorescence measurement (excitation at 320 nm and emission at 405 nm) at different incubation times (0, 30, 60, 90, 120 and 450 min). For every experiment a time curve (every 30 min between 0 min and 120 min) is used to determine the time where we find the lowest basal signal of the high control. The signal at this time (Tx) is used to subtract from the signal at 450 min. Results are expressed in RFU, as difference between T450 and Tx.
(§2) A best-fit curve is fitted by a minimum sum of squares method to the plot of % Controlmin versus compound concentration. From this an IC50 value (inhibitory concentration causing 50% inhibition of activity) can be obtained. • LC=Median of the low control values=Low control: Reaction without enzyme • HC=Median of the High control values=High Control: Reaction with enzyme
(§3) % Effect=100−[(sample−LC)/(HC−LC)*100]
(§4) % Control=(sample/HC)*100
(§5) % Controlmin=(sample−LC)/(HC−LC)*100

[1] = test system: Abeta 1-42 produced and secreted by SKNBE2 cells expressing hAPP695; experiment: Cellular αLisa assay in SKNBE2 cells, Abeta 1-42; type: cell-based, human; settings: SKNBE2 cells expressing hAPP695, 18 hours incubation; for IC50: Homo sapiens, SKNBE2, 18 h, read-out: CELLULAR αLISA ASSAY IN SKNBE2 CELLS ABETA 42 PIC50 (converted)
Protocol: (§6) In two αLisa assays the levels of Abeta total and Abeta 1-42 produced and secreted into the medium of human neuroblastoma SKNBE2 cells are quantified. The assay is based on the human neuroblastoma SKNBE2 expressing the wild type Amyloid Precursor Protein (hAPP695). The compounds are diluted and added to these cells, incubated for 18 hours and then measurements of Abeta 1-42 and Abeta total are taken. Abeta total and Abeta 1-42 are measured by sandwich αLisa. αLisa is a sandwich assay using biotinylated antibody AbN/25 attached to streptavidin coated beads and antibody Ab4G8 or cAb42/26 conjugated acceptor beads for the detection of Abeta total and Abeta 1-42 respectively. In the presence of Abeta total or Abeta 1-42, the beads come into close proximity. The excitation of the donor beads provokes the release of singlet oxygen molecules that trigger a cascade of energy transfer in the acceptor beads, resulting in light emission. Light emission is measured after 1 hour incubation (excitation at […] and emission at 615 nm).
as §2, with “cells preincubated” for “Reaction”, “compound, without biotinylated Ab in the αLisa” for “enzyme”, “cells preincubated without compound” for “Reaction with enzyme”
as §3, §4, §5

BACE2 = molecular target: T2, BACE2 (Homo sapiens, UniProt Q9Y5Z0); experiment: BACE2 biochemical FRET based assay; settings: recombinant BACE2 0.4 μg/ml, 10 μM substrate, 450 min, pH 5.0; for IC50: read-out: BIOCHEMICAL FRET BASED ASSAY pIC50 (converted)
T2 construct: recombinant BACE2 protein in a final concentration of 0.4 μg/ml
T2 sequence (Q9Y5Z0 63-518): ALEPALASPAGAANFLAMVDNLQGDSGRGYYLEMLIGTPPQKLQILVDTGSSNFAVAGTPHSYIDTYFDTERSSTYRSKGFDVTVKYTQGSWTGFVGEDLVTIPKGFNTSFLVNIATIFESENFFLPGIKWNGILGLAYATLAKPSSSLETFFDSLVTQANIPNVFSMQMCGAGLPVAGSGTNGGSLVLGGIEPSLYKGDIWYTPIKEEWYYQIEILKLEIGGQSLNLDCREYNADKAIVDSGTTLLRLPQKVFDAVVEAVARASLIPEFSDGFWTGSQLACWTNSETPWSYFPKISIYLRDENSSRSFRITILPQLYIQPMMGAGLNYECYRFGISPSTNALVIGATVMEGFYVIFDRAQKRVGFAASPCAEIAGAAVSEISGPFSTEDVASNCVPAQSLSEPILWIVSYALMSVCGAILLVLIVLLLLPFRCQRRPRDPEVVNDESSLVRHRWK
From the text: as §1, with “assay” for “assay is an APP derived 13 amino acids peptide that”, “the beta-secretase,” for “BACE1,”
Briefly in a 384-well format recombinant BACE2 protein in a final concentration of 0.4 μg/ml is incubated for 450 minutes at room temperature with 10 μM substrate in incubation buffer (50 mM Citrate buffer pH 5.0, 0.05% PEG, no DMSO) in the absence or presence of compound. Next the amount of proteolysis is directly measured by fluorescence measurement at T=0 and T=450 (excitation at 320 nm and emission at 405 nm). Results are expressed in RFU (Relative Fluorescence Units), as difference between T450 and TO.
as §2, §3, §4, §5

[2] = test system: Abeta total produced and secreted by SKNBE2 cells expressing hAPP695; experiment: Cellular αLisa assay in SKNBE2 cells, Abeta total; type: cell-based, human; settings: SKNBE2 cells expressing hAPP695, 18 hours incubation; for IC50: Homo sapiens, SKNBE2, 18 h, read-out: CELLULAR αLISA ASSAY IN SKNBE2 CELLS ABETA TOTAL pIC50 (converted)
Protocol: as §6
as §2, with “cells preincubated” for “Reaction”, “compound, without biotinylated Ab in the αLisa” for “enzyme”, “cells preincubated without compound” for “Reaction with enzyme”
as §3, §4, §5

T1 sequence (P56817 46-501): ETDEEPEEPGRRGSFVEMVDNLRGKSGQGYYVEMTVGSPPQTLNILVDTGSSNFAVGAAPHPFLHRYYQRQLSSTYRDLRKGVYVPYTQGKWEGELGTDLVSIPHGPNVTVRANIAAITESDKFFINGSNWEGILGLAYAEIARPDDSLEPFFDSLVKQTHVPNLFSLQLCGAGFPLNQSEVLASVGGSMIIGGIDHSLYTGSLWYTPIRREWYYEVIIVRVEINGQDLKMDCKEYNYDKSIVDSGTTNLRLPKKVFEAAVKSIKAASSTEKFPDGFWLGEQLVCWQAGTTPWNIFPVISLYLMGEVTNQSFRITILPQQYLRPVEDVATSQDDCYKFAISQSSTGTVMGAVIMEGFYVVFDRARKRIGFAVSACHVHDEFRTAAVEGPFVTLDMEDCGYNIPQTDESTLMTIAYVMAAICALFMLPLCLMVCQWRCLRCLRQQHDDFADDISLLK

Row | Structure (SMILES) | BIOCHEMICAL FRET BASED ASSAY pIC50 (BACE1) | BIOCHEMICAL FRET BASED ASSAY pIC50 (BACE2) | CELLULAR αLISA ASSAY IN SKNBE2 CELLS ABETA TOTAL pIC50 [2] | IC50 (BACE1) | IC50 [1] | IC50 (BACE2) | IC50 [2] | CELLULAR αLISA ASSAY IN SKNBE2 CELLS ABETA 42 PIC50 [1]
1 | COc1ncc(-c2cc(C#N)ccc2Cl)c2c1C[C@]1(c3ccc(F)cc3F)N=C(N)SC[C@@H]1C2 [Compound 53] | 7.97 | 6.84 | 7.9 | – | – | – | – | 7.84
2 | CCOc1nccc2c1CC1(c3ccc(F)cc3F)N=C(N)SCC1C2 (single isomer, unassigned) [Compound 195] | 6.9 | 6.85 | 7.09 | – | – | – | – | 7.09

The next lines start with results.

Row | BIOCHEMICAL FRET BASED ASSAY pIC50 (BACE1) | BIOCHEMICAL FRET BASED ASSAY pIC50 (BACE2) | CELLULAR αLISA ASSAY IN SKNBE2 CELLS ABETA TOTAL pIC50 [2] | IC50 (BACE1) | IC50 [1] | IC50 (BACE2) | IC50 [2] | Structure (SMILES) | CELLULAR αLISA ASSAY IN SKNBE2 CELLS ABETA 42 PIC50 [1]
3 | – | – | – | 158 nM | 53.7 nM | 174 nM | 46.8 nM | COc1nccc2c1C[C@]1(c3ccccc3F)N=C(N)SC[C@@H]1C2 (racemic) [Compound 2] | –
4 | – | – | – | 55 nM | 138 nM | 77.6 nM | 138 nM | COc1ncc(Br)c2c1C[C@]1(c3ccccc3F)N=C(N)SC[C@@H]1C2 (racemic) [Compound 16] | –
5 | – | – | – | 398 nM | 69.2 nM | 468 nM | 74.1 nM | COc1nccc2c1C[C@]1(c3ccccc3)N=C(N)SC[C@@H]1C2 (racemic) [Compound 1] | –
6 | 8.38 | 7.35 | 7.88 | – | – | – | – | COc1ncc(-c2ccccc2Cl)c2c1C[C@]1(c3ccc(F)cc3F)N=C(N)SC[C@@H]1C2 [Compound 52] | 7.96
